Measurements from patent publication US6399654B1, “Biflavanoids and derivatives thereof as antiviral agents” (priority 1995, dated 2002).

Tests used:
HIV-1 RT = target: T1, HIV-1 RT (Human immunodeficiency virus type 1 group M subtype B, UniProt P03366); assay: Anti-HIV-1 RT assay (recombinant enzyme); type: biochemical
T1 construct: made in house; host or cells: Escherichia coli

human PBM cells = assay: Cytotoxicity in uninfected PHA-stimulated human PBM cells
[1] = as above; conditions: human
HIV-1 (strain LAV-1) = assay: microbe, parasite or virus in culture; type: cell-based

O=C1CC(c2ccc(O)cc2)Oc2c1c(O)cc(O)c2C1C(=O)c2c(O)cc(O)cc2OC1c1ccc(O)cc1 (centres unmarked) [GB-1a(13), GB-1a]
IC50 (HIV-1 RT; Anti-HIV-1 RT IC50, values in parentheses or in words): 236 µM
IC50 (HIV-1 RT; HIV-1 RT IC50 (50% inhibition dose)): 236 µM
inhibition at 200 µg/mL (HIV-1 RT; read-out: Anti-HIV-1 RT % Inhibition at 200 μg/ml): 86%
toxicity against uninfected PHA-stimulated human PBM cells (in words) (human PBM cells): high toxicity
IC50 [1]: 88 µM
anti-HIV-1 activity in PBM cells (in words) (HIV-1 (strain LAV-1)): good activity
EC50 (HIV-1 (strain LAV-1); Human immunodeficiency virus 1, PBMC, human PBM cells infected with HIV-1 (strain LAV), read-out: Ant-HIV-1 in PBM cells EC50): 38 µM
Selective Index (SI) (HIV-1 (strain LAV-1); PBM cells): 2.3
